In patent US20170315129A1, “CANCER CELL DETECTION METHOD USING LIVING BODY-DERIVED CELLS OF BIOLOGICAL ORIGIN” (Hirosaki University, priority 2014, published 2017):
Entries after “also recorded” stand apart in the source; their conditions may differ.

Tests used:
[1] = system: ascites cells obtained during an operation of a patient with endometrial cancer (endometrioid adenocarcinoma); assay: Live-cell fluorescence imaging of ascites cells, endometrial cancer patient, with later Papanicolaou staining (Example 2); assay type: cell-based, human
Experimental: Immediately after the start of laparotomy for endometrial cancer (endometrioid adenocarcinoma), the peritoneal cavity was washed with physiological saline in the same manner as in Example 1 to obtain a peritoneal washing, which was then added to a 50 mL centrifuge tube having 5 mL of the Hanks solution in advance. The resulting ascitic fluid suspension was centrifuged at […] for 2 minutes at room temperature, and the supernatant was removed by decantation. Subsequently, 30 mL of a commercially available solution of ammonium chloride for hemolysis was added, and allowed to stand for 2 minutes, and then centrifuged at 1500 G for 2 minutes at room temperature, and the supernatant was then removed by decantation. Some of the resulting pellet was set aside for cytodiagnosis tests at the hospital's pathology department, and the rest was further divided into 2 portions, each of which was dispersed into 40 mL of a KRB solution in 50 mL centrifuge tubes, and stored at room temperature an a dark place until application of fLG on the next day. […]
Observation and image acquisition were performed about 22 hours after obtaining ascites cells using the same instruments as in Example 1. […] Subsequently, a bright-field image and fluorescence images of the target cells were obtained using a high-power lens, and positional information on the stage was registered using a software dedicated for BZ-X700. […]

[2] = system: ascites cells obtained during an operation of a patient with ovarian cancer (serous adenocarcinoma); assay: Live-cell fluorescence imaging by the perfusion method, original ascites cells, ovarian cancer patient (Example 4); assay type: cell-based, human; conditions: cancer cell cluster; perfusion 100 μM 2-NBDLG and 20 μM 2-TRLG for 5 minutes, imaged 10 minutes after switch to KRB; FIG. 7A/7B, 8D
Experimental: A surplus portion of the original ascitic fluid taken from the peritoneal cavity immediately after the start of laparotomy for ovarian cancer (serous adenocarcinoma) was added to a 50 mL centrifuge tube having 5 mL of the Hanks solution in advance. The obtained ascitic fluid suspension was checked for presence of fibrin with a toothpick, and then passed through a mesh to remove fat and impurities. Next, it was evenly dispensed into two 50 mL centrifuge tubes, and centrifuged at 1500 G for 2 minutes at room temperature. The supernatant of each of the two centrifuge tubes was then gently removed from the liquid surface down to 7.5 mL with an electric pipette, and then the rest was further removed with a dropper to leave 1 mL. The sedimented layer containing red blood cells and the like were present at the bottom of the centrifuge tube. A 1 mL portion was collected from the upper surface with a dropper without aspirating red blood cells from the sedimented layer to obtain an ascites cell suspension. • (2) Adhesion of Ascites Cells on Glass Plate by Centrifugation, and Method of Maintaining Cell Viability
The ascites cells were allowed to attach on a glass plate using a commercially available automated cell collecting system CF-12D (Sakura Finetek Japan Co., Ltd.). […]

glucose transporter GLUT = conditions: cited from earlier work
cultured cells = conditions: 2-TRLG and 2-NBDLG applied together to cultured cells; cited from earlier work

In the case of O=C[C@@H](Nc1ccc([N+](=O)[O-])c2nonc12)[C@H](O)[C@@H](O)[C@@H](O)CO [2-NBDLG, 2-[N-(7-nitrobenz-2-oxa-1,3-diazole-4-yl)amino]-2-deoxy-L-glucose], the “intracellular localisation of 2-NBDLG uptake” value ([1]; Cluster 1, FIG. 4A) is reported as “taken up into the cytoplasmic portion except for the nucleus”, the “fluorescence from 2-NBDLG (green wavelength region)” value ([1]; two cancer-cell clusters (left cluster and Cluster 1), 100 μM 2-NBDLG and 20 μM 2TRLG, fLG applied about 20 hours after sampling, FIG. 3B, 4D) is reported as “show fluorescence; also recorded: positive” and the “fluorescence from 2-NBDLG (green wavelength region), after vs before application of fLG” value [2] is reported as “shows fluorescence; also recorded: positive”. The “binding to glucose transporter GLUT” value (glucose transporter GLUT) was “does not bind” and the “uptake into cells having damaged plasma membranes or showing nonspecific uptake such as phagocytosis” value (cultured cells) was “taken up into cells having damaged plasma membranes”.
